Results reported in PubChem BioAssay (NCI).
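Growth conditions: 96-well plates. Treatment: test compound, 48 hours, 5 concentrations. Analysis: linear interpolation between bracketing concentrations; unreached endpoints set to highest concentration. Definition used: TGI = concentration required for complete inhibition of growth.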

Key:
Assay in all cases: NCI anticancer screen, dose series, 48 h
[1] = system: A498 renal
[2] = system: UACC-62 melanoma
[3] = system: ACHN renal
[4] = system: NCI-H226 lung
[5] = system: UO-31 renal
[6] = system: SF-539 CNS
[7] = system: 786-0 renal
[8] = system: NCI-H522 lung
[9] = system: EKVX NSCLC
[10] = system: MCF7 breast
[11] = system: IGROV1 ovarian
[12] = system: K-562 leukemia
[13] = system: RPMI-8226 leukemia
[14] = system: NCI-H23 lung
[15] = system: SF-295 CNS
[16] = system: KM12 colon
[17] = system: NCI-H460 lung
[18] = system: OVCAR-8 ovarian
[19] = system: HCT-116 colon
[20] = system: SR leukemia

Structure (SMILES) | TGI [1] [µM] | TGI [2] [µM] | TGI [3] [µM] | TGI [4] [µM] | TGI [5] [µM] | TGI [6] [µM] | TGI [7] [µM] | TGI [8] [µM] | TGI [9] [µM] | TGI [10] [µM] | TGI [11] [µM] | TGI [12] [µM] | TGI [13] [µM] | TGI [14] [µM] | TGI [15] [µM] | TGI [16] [µM] | TGI [17] [µM] | TGI [18] [µM] | TGI [19] [µM] | TGI [20] [µM]
CCN1CCC(O)(/C=C/c2ccc(C)cc2)C(C(=O)/C=C/c2ccc(C)cc2)C1 (stereo not given) | 24.6 | 12.3 | 14.7 | 29 | 12.4 | 10.3 | 4.29 | 3.62 | 26.3 | 6.36 | 17.5 | 6.07 | 10.8 | 18.5 | 22.9 | 5.16 | 16.7 | 7.54 | 4.63 | 6.84
CN(C)CC1CCC/C(=C\c2ccc(Cl)cc2)C1=O (stereo not given) | 31.1 | 4.5 | 7.04 | 28.8 | 4.52 | 29.1 | 3.22 | 3.27 | 25.7 | 3.38 | 8.62 | 4.89 | > 100 | 22.5 | 29.2 | 3.46 | 43.3 | 17.4 | 3.55 | > 100
S=C1SSC2N=CC=CC12 (stereo not given) | > 100 | > 100 | > 100 | > 100 | > 100 | > 100 | > 100 | > 100 | > 100 | > 100 | > 100 | > 100 | > 100 | > 100 | > 100 | 33 | > 100 | > 100 | > 100 | > 100
CC1CC[C@@]2(OC1)OC1C[C@H]3[C@@H]4CC[C@H]5CC(OC6OC(CO)C(O)C(OC7OC(CO)C(OC8OC(CO)C(O)C(OC9OC(CO)C(O)C(O)C9O)C8OC8OC(CO)C(O)C(O)C8O)C(O)C7O)C6O)[C@H](O)CC5(C)[C@H]4CCC3(C)C1[C@@H]2C (stereo not given in full) | 3.16 | 16.6 | 7.4 | 13.3 | 6.9 | 6.76 | 6.76 | 5.35 | 10.8 | 5.43 | 4.59 | 12.4 | 12.9 | 12.7 | 9.39 | 12.2 | 15.5 | 6.67 | 11.5 | 2.98
CC(C(=O)OCc1ccccc1)(c1ccco1)N1C(=O)OC(c2ccccc2)C1c1ccccc1 (stereo not given) | > 100 | > 100 | > 100 | > 100 | > 100 | > 100 | > 100 | > 100 | > 100 | > 100 | > 100 | > 100 | > 100 | > 100 | > 100 | > 100 | > 100 | > 100 | > 100 | > 100
